Test results published in ChEMBL document CHEMBL3044809, “Design, synthesis, and fungicidal activities of new strobilurin derivatives” (2007).
≈ marks a conversion by molar mass, not a printed value.

Legend:
Type in all cases: functional
[1] = tested on: Colletotrichum gossypii; test: Antifungal activity against Colletotrichum gossypii assessed as inhibition rate at 50 ug/mL
[2] = tested on: Dothiorella gregaria; test: Antifungal activity against Dothiorella gregaria assessed as inhibition rate at 50 ug/mL
[3] = tested on: Fusarium graminearum; test: Antifungal activity against Fusarium graminearum assessed as inhibition rate at 50 ug/mL
[4] = tested on: Rhizoctonia solani; test: Antifungal activity against Rhizoctonia solani assessed as inhibition rate at 50 ug/mL
[5] = tested on: Botrytis; test: Antifungal activity against Botrytis cinereapers assessed as inhibition rate at 50 ug/mL
[6] = tested on: Fusarium oxysporum; test: Antifungal activity against Fusarium oxysporum assessed as inhibition rate at 50 ug/mL
[7] = tested on: Pseudoperonospora cubensis; test: Antifungal activity against Pseudoperonospora cubensis inoculated in inoculated in cucumber plant assessed as preventive fungicidal activity at 100 ug/mL measured after 7 days
[8] = tested on: Podosphaera fuliginea; test: Antifungal activity against Podosphaera fuliginea inoculated in inoculated in cucumber plant assessed as preventive fungicidal activity at 50 ug/mL measured after 7 days
[9] = tested on: Podosphaera fuliginea; test: Antifungal activity against Podosphaera fuliginea inoculated in inoculated in cucumber plant assessed as preventive fungicidal activity at 100 ug/mL measured after 7 days
[10] = tested on: Pseudoperonospora cubensis; test: Antifungal activity against Pseudoperonospora cubensis inoculated in inoculated in cucumber plant assessed as preventive fungicidal activity measured after 7 days; conditions: 168 h
[11] = tested on: Pseudoperonospora cubensis; test: Antifungal activity against Pseudoperonospora cubensis inoculated in inoculated in cucumber plant assessed as preventive fungicidal activity at 25 ug/mL measured after 7 days
[12] = tested on: Pseudoperonospora cubensis; test: Antifungal activity against Pseudoperonospora cubensis inoculated in inoculated in cucumber plant assessed as preventive fungicidal activity at 50 ug/mL measured after 7 days
[13] = tested on: Podosphaera fuliginea; test: Antifungal activity against Podosphaera fuliginea inoculated in inoculated in cucumber plant assessed as preventive fungicidal activity measured after 7 days; conditions: 168 h
[14] = tested on: Podosphaera fuliginea; test: Antifungal activity against Podosphaera fuliginea inoculated in inoculated in cucumber plant assessed as preventive fungicidal activity at 25 ug/mL measured after 7 days

| Compound | inhibition at 50 µg/mL [1] [%] | inhibition at 50 µg/mL [2] [%] | inhibition at 50 µg/mL [3] [%] | inhibition at 50 µg/mL [4] [%] | inhibition at 50 µg/mL [5] [%] | inhibition at 50 µg/mL [6] [%] | Activity [7] [%] | Activity [8] [%] | Activity [9] [%] | EC90 [10] [µg/mL] | Activity [11] [%] | Activity [12] [%] | EC90 [13] [µg/mL] | Activity [14] [%] |
| --- | --- | --- | --- | --- | --- | --- | --- | --- | --- | --- | --- | --- | --- | --- |
| CO/N=C(/C(=O)OC)c1ccccc1CSc1nnc(CSc2nc3nc(C)cc(C)n3n2)s1 | 32 | 58 | 45 | 78 | 64 | 54 | – | – | – | – | – | – | – | – |
| CO/C=C(/C(=O)OC)c1ccccc1CSc1nc(C)cc(C)n1 | 52 | 91 | 74 | 83 | 52 | 79 | 0 | 40 | 70 | – | – | – | – | – |
| CO/C=C(/C(=O)OC)c1ccccc1CSc1nnc(N)s1 | 39 | 55 | 40 | 61 | 11 | 65 | – | – | – | – | – | – | – | – |
| CO/C=C(/C(=O)OC)c1ccccc1CSc1nnc(-c2ccccc2)n1N | 64 | 76 | 69 | 84 | 41 | 76 | – | – | – | – | – | – | – | – |
| CO/C=C(/C(=O)OC)c1ccccc1CSc1nc2ccccc2[nH]1 | 52 | 87 | 53 | 78 | 47 | 45 | – | – | – | – | – | – | – | – |
| CO/C=C(/C(=O)OC)c1ccccc1CSc1nc2ccccc2o1 | 83 | 46 | 81 | 78 | 47 | 69 | – | – | – | – | – | – | – | – |
| CO/C=C(/C(=O)OC)c1ccccc1CSc1nc2ccccc2s1 | 86 | 94 | 74 | 87 | 47 | 69 | 100 | 100 | 100 | 46.3 (≈ 125 µM) | 62 | 94 | 6.17 (≈ 16.6 µM) | 100 |
| CO/C=C(/C(=O)OC)c1ccccc1CSc1nn2c(C)nnc2s1 | 50 | 82 | 53 | 83 | 41 | 59 | – | – | – | – | – | – | – | – |
| CO/C=C(/C(=O)OC)c1ccccc1CSc1nc2nc(C)cc(C)n2n1 | 39 | 78 | 47 | 66 | 7 | 61 | – | – | – | – | – | – | – | – |
| CO/C=C(/C(=O)OC)c1ccccc1CSc1nnc(CSc2nc3nc(C)cc(C)n3n2)o1 | 39 | 73 | 36 | 73 | 36 | 36 | – | – | – | – | – | – | – | – |
| CO/C=C(/C(=O)OC)c1ccccc1CSc1nnc(CSc2nc3nc(C)cc(C)n3n2)s1 | 39 | 69 | 44 | 58 | 14 | 61 | – | – | – | – | – | – | – | – |
| CO/C=C(/C(=O)OC)c1ccccc1CSc1nnc(CSc2nc3nc(C)cc(C)n3n2)n1N | 35 | 78 | 43 | 73 | 14 | 44 | – | – | – | – | – | – | – | – |
| CO/C=C(/C(=O)OC)c1ccccc1CSc1nnc(CSc2nc3nc(C)cc(C)n3n2)n1-c1ccccc1 | 17 | 11 | 36 | 37 | 7 | 40 | – | – | – | – | – | – | – | – |
| CO/C=C(/C(=O)OC)c1ccccc1CSc1cc(=O)c2ccccc2s1 | 52 | 14 | 53 | 64 | 18 | 48 | – | – | – | – | – | – | – | – |
| CO/N=C(/C(=O)OC)c1ccccc1CSc1cc(=O)c2ccccc2s1 | 48 | 19 | 61 | 73 | 23 | 44 | – | – | – | – | – | – | – | – |
| CO/N=C(/C(=O)OC)c1ccccc1CSc1nc(C)cc(C)n1 | 59 | 82 | 61 | 73 | 27 | 76 | – | – | – | – | – | – | – | – |
| CO/N=C(/C(=O)OC)c1ccccc1CSc1nc2ccccc2[nH]1 | 82 | 87 | 69 | 90 | 77 | 72 | 0 | – | 0 | – | – | – | – | – |
| CO/N=C(/C(=O)OC)c1ccccc1CSc1nc2ccccc2s1 | 75 | 84 | 81 | 82 | 52 | 74 | 84 | 100 | 100 | 150 (≈ 404 µM) | 39 | 66 | 9.6 (≈ 25.8 µM) | 97 |
| CO/N=C(/C(=O)OC)c1ccccc1CSc1nc2nc(C)cc(C)n2n1 | 35 | 78 | 50 | 69 | 14 | 50 | – | – | – | – | – | – | – | – |
| CO/N=C(/C(=O)OC)c1ccccc1CSc1nnc(CSc2nc3nc(C)cc(C)n3n2)o1 | 36 | 70 | 41 | 88 | 77 | 63 | – | – | – | – | – | – | – | – |
| CO/N=C(/C(=O)OC)c1ccccc1COc1ccccc1C [KRESOXIM-METHYL] | 50 | 82 | 53 | 70 | 50 | 61 | 80 | 100 | 100 | 155 (≈ 494 µM) | 27 | 56 | 7.3 (≈ 23.3 µM) | 98 |
| CC(C)(C)C(=O)C(Oc1ccc(Cl)cc1)n1cncn1 (stereo unspecified) [TRIADIMEFON] | 95 | 61 | 72 | 90 | 84 | 86 | – | – | – | – | – | – | – | – |
